Structures are written as SMILES. Values joined by “and” are separate entries in the source; they are usually repeats but may differ in a detail not shown here. Equal values may be shown once.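 Briefly, cells in 96-well plates were exposed to five compound concentrations for 48 h, and endpoints were estimated by linear interpolation. The concentration for 50% growth inhibition is given as GI50. TGI: total growth inhibition.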 A value given as a limit tells only on which side of the number the result lay.

Assay in all cases: inhibition of tumour cell growth, NCI panel, 48 h
For assay [1], the system named is KM12 colon.
For assay [2], the system named is UO-31 renal.
Assay [3] has as its system A498 renal.
Assay [4] deals with M14 melanoma.
In assay [5] the test system is A549 NSCLC.
The test system of assay [6] is K-562 leukemia.
Assay [7] relates to NCI-H460 lung.
For assay [8], the system named is SN12C renal.
In assay [9] the test system is SF-539 CNS.
Assay [10] concerns CAKI-1 renal.

On to `O=C1/C(=C/c2ccccc2[N+](=O)[O-])COc2ccc(O)cc21`, for which the GI50 is 1.85 µM in assay [1]; 1.02 µM in assay [2]; 1.65 µM in assay [3]; 1.9 µM in assay [4]; 4.49 µM in assay [5]; 0.528 µM in assay [6]. Moreover, the GI50 in [7] is 2.1 µM; in assay [8], 1.6 µM; in [9] it was 1.71 µM; in assay [10], 1.03 µM. Besides, the TGI in assay [1] was 4.31 µM; in [2], 2.63 µM; in assay [3], 7.24 µM; in assay [4], 4.85 µM; in assay [5], 19.4 µM; in assay [6] it was above 100 µM. In addition, the TGI in [7] stood at 5.04 µM; in [8], 5.55 µM; in assay [9], 4.27 µM; in assay [10], 2.91 µM.
`CN(C)c1nc(N)c(C#N)c(C#N)c1C#N`: the TGI in assay [1] was above 10 µM; in [2] it was above 10 µM; in [3] it was above 10 µM; in assay [4], above 10 µM; in assay [5] it was above 10 µM; in [6] it was above 7.15 µM. For the same compound, the TGI in [7], in assay [8], in [9] and in [10] was above 10 µM each time.
For the compound `C=C1C=CC2(Br)OC3CC(C)(Cl)C(Br)CC13C2(C)C` (stereo not given), the TGI in assay [1] is 58.9 µM; in assay [2] it was 70.5 µM; in [3], 46.5 µM; in assay [4] it was 53.2 µM; in assay [5], above 100 µM; in assay [6] it was 36.8 µM. The TGI in [7] was 46 µM; in assay [8], 37.7 µM; in assay [9] it was 38.9 µM; in assay [10], above 100 µM.
Regarding `O=C(c1c(O)cc(O)cc1O)C1Cc2ccccc21` (stereo not given), the TGI in assay [1], in assay [2], in assay [3], in [4], in assay [5] and in assay [6] was above 100 µM in each case. The TGI in [7], in assay [8], in [9] and in assay [10] was above 100 µM throughout.
On to `Clc1nc(Cl)c2ncn(CCOCCn3cnc4c(Cl)nc(Cl)nc43)c2n1`, for which the GI50 in assay [1] was 0.236 µM; in assay [2], 0.633 µM; in assay [3] it was 1.72 µM; in assay [4], 0.287 µM; in [5] it was 0.312 µM; in assay [6] it was 0.361 µM. Besides, the GI50 is 0.217 µM in assay [7], 0.214 µM in [8], 0.17 µM in assay [9] and 0.197 µM in assay [10]. For the same compound, the TGI in assay [1] is 0.491 µM; in assay [2], 1.25 µM; in assay [3], 3.2 µM; in assay [4], 0.817 µM; in assay [5], 1.3 µM; in [6], above 100 µM. Besides, the TGI in assay [7] was 0.463 µM; in assay [8] it was 0.433 µM; in assay [9], 0.381 µM; in assay [10], 0.453 µM.
`COc1cc(C(=O)/C=C/c2c(C(F)(F)F)nc3ccccn23)cc(OC)c1OC`: the GI50 is 1.73 µM in assay [1]; 1.49 µM in assay [2]; 2.4 µM in assay [3]; 1.82 µM in assay [4]; 4.04 µM in [5]; 2.83 µM in assay [6]. Further, the GI50 is 2.01 µM in assay [7], 2.09 µM in assay [8], 1.63 µM in assay [9] and 1.82 µM in assay [10]. The TGI is 3.64 µM in assay [1]; 3.11 µM in assay [2]; 5.77 µM in [3]; 4.06 µM in assay [4]; above 100 µM in assay [5]; above 100 µM in assay [6]. For the same compound, the TGI in [7] turned out to be 13.4 µM; in assay [8], 6.49 µM; in [9], 3.22 µM; in [10] it was 4.44 µM.
Turning to `CCOC(=O)C(CCCNC(=O)OC(C)(C)C)N(Cc1ccc(OC)cc1OC)C(=O)CC(=O)CP(=O)(OCC)OCC` (stereo not given), the TGI in assay [1], in [2], in assay [3], in assay [4], in assay [5] and in assay [6] was above 100 µM throughout. In addition, the TGI in assay [7], in assay [8], in [9] and in assay [10] was above 100 µM throughout.
As to `c1ccc(CN2COc3c(ccc4c5c(ccc34)CN(Cc3ccccc3)CO5)C2)cc1`, the TGI in assay [1], in [2], in assay [3], in [4], in [5] and in assay [6] was above 100 µM in each case. Moreover, the TGI in [7], in assay [8], in assay [9] and in [10] was above 100 µM in each case.
Turning to `S=C(NCc1ccc2c(c1)OCO2)N1CCN(c2ncnc3c2oc2ccccc23)CC1`, the GI50 was 36.7 µM in assay [1]; above 21.7 µM in assay [2]; 4.42 µM in assay [3]; above 71.4 µM in [4]; 7.24 µM in assay [5]; 3.6 µM in assay [6]. The GI50 was 6.85 µM in assay [7], above 100 µM in [8], above 100 µM in assay [9] and 5.93 µM in assay [10]. The TGI in assay [1], in [2], in assay [3], in assay [4], in [5] and in assay [6] was above 100 µM throughout. The TGI in assay [7], in assay [8], in assay [9] and in assay [10] was above 100 µM throughout.
On to `COc1c(OC(C)C)cc2cc(O)c(C(=O)NC3Cc4ccc(c(Cl)n4)O[C@@H]4C=C5C#C/C(=C\C#CC6OC56C4OC4CC(C)(O)C(O)C(C)O4)C(OC4CC(O)C(N(C)C)C(C)O4)COC3=O)cc2c1OC` (stereo not given in full), for which the GI50 is > 36.3 µM and 10.1 µg/mL in assay [1]; > 36.3 µM and 6.42 µg/mL in [2]; 0.168 µg/mL in assay [3]; 32.7 µM and 2.8 µg/mL in assay [4]; > 36.3 µM and 0.798 µg/mL in assay [5]; > 36.3 µM and 0.823 µg/mL in assay [6]. In addition, the GI50 in [7] is 3.81 µM and 0.0528 µg/mL; in [8] it was 17.7 µM and 0.718 µg/mL; in assay [9], 14.4 µM and 0.372 µg/mL; in assay [10] it was 0.897 µg/mL. Further, the TGI in [1] is > 36.3 µM and 37.5 µg/mL; in assay [2], > 36.3 µM and 37.5 µg/mL; in assay [3], > 36.3 µM and 8.7 µg/mL; in assay [4], > 36.3 µM and 21.4 µg/mL; in assay [5] it was > 36.3 µM and 37.5 µg/mL; in assay [6] it was > 36.3 µM and 37.5 µg/mL. Moreover, the TGI is > 36.3 µM and 7.13 µg/mL in assay [7]; > 36.3 µM and 9.82 µg/mL in assay [8]; > 36.3 µM and 5.29 µg/mL in assay [9]; > 36.3 µM and 37.5 µg/mL in [10].
For `O=C(c1cc(Cc2n[nH]c(=O)c3ccccc23)ccc1F)N1CCN(C(=O)C2CC2)CC1`, the GI50 in assay [1] is above 100 µM; in assay [2], 71.7 µM and 40.7 µM; in [3], 19 µM and > 55.7 µM; in assay [4] it was 73.3 µM and > 86 µM; in [5] it was above 100 µM; in assay [6], 54.5 µM and > 66.4 µM. In addition, the GI50 is 9.25 µM and 9.96 µM in [7]; above 100 µM in [8]; above 100 µM in assay [9]; 16.5 µM and 54.5 µM in [10]. Besides, the TGI in assay [1], in [2], in [3], in [4], in assay [5] and in assay [6] was above 100 µM throughout. Also, the TGI in assay [7] is above 100 µM; in assay [8], above 100 µM; in assay [9] it was above 100 µM; in [10], 48.1 µM and > 100 µM.
As to `Cc1ccc(C2=Nc3ccccc3SC(c3cccc4c3OCO4)C2)cc1` (stereo not given), the TGI in assay [1] came to 32.5 µM; in assay [2], 27.3 µM; in assay [3], 43.6 µM; in assay [4] it was 34.9 µM; in [5], 72.4 µM; in [6], 38.3 µM. Further, the TGI in [7] was above 100 µM; in assay [8], 41 µM; in assay [9] it was 40.2 µM; in assay [10], 30 µM.
On to `O=C(Cc1ccccc1)C(c1ccccc1)S(=O)(=O)c1ccccc1` (stereo not given), for which the TGI in [1], in assay [2], in assay [3], in [4], in [5] and in assay [6] was above 100 µM each time. For the same compound, the TGI in [7], in assay [8], in [9] and in [10] was above 100 µM each time.
Take `CCOC(=O)C(Cc1ccc(N(CCCl)CCCl)cc1)NC(=O)C(Cc1ccccc1)NC(C)=O` (stereo not given): the TGI in assay [1] was above 0.565 µM; in assay [2] it was above 0.328 µM; in assay [3] it was above 0.414 µM; in assay [4], above 0.318 µM; in [5], above 1 µM; in assay [6], above 0.502 µM. Also, the TGI is above 0.553 µM in assay [7], above 0.296 µM in assay [8], above 0.294 µM in [9] and 0.419 µM in assay [10].
As to `COc1ccc(COc2cc3oc(=O)c4cc(C(C)O)ccc4c3cc2OC)cc1` (stereo not given), the GI50 is 26.2 µM in assay [1]; 14.7 µM in assay [2]; 19.2 µM in assay [3]; above 22.5 µM in [4]; 14 µM in assay [5]; 73.4 µM in assay [6]. Further, the GI50 is 12.6 µM in assay [7], 21.2 µM in [8], 9.97 µM in [9] and 15.3 µM in [10]. Besides, the TGI in [1] is above 100 µM; in assay [2], above 100 µM; in assay [3] it was 82.2 µM; in assay [4] it was above 100 µM; in assay [5], above 100 µM; in assay [6], above 100 µM. For the same compound, the TGI was above 100 µM in [7], above 100 µM in assay [8], 33 µM in assay [9] and above 51.1 µM in assay [10].
`Nc1nc2ccccc2c2c1S(=O)(=O)c1ccc(Cl)cc1C2=O`: the GI50 in [1] is 1.86 µM; in assay [2], 1.21 µM; in assay [3], 2.37 µM; in assay [4], 2.45 µM; in [5] it was 3.26 µM; in [6], 1.45 µM. The GI50 is 1.68 µM in [7], 1.16 µM in assay [8], 1.3 µM in assay [9] and 1.59 µM in assay [10]. In addition, the TGI is 13.3 µM in assay [1]; 9.38 µM in [2]; 22.5 µM in assay [3]; 35.4 µM in [4]; above 50 µM in assay [5]; above 50 µM in assay [6]. Also, the TGI was 6.63 µM in [7], 4.54 µM in [8], 3.62 µM in assay [9] and above 50 µM in [10].
Consider `Nc1nc(-c2ccc(Cl)cc2)nc2c1sc(=S)n2-c1ccccc1`, for which the GI50 in assay [1] was 5.4 µM; in assay [2], 1.84 µM; in assay [3], 1.92 µM; in assay [4], 7.87 µM; in [5], 3.67 µM; in [6], 4.75 µM. The GI50 in assay [7] is 3.31 µM; in assay [8], 6.34 µM; in assay [9], 1.62 µM; in assay [10], 9.17 µM. In addition, the TGI in [1] is above 100 µM; in [2], 4.19 µM; in assay [3], 5.19 µM; in assay [4], 38.1 µM; in assay [5] it was 25.4 µM; in [6] it was above 100 µM. Also, the TGI stood at 10.2 µM in assay [7], 48.1 µM in [8], 3.29 µM in assay [9] and 84.5 µM in assay [10].

These data come from PubChem BioAssay (NCI).
